Data published in PubChem BioAssay (NCI).
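Method: 48-hour compound exposure of cells in 96-well plates, five concentrations, linear interpolation of endpoints. Definition used: TGI = concentration required for complete inhibition of growth.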

How the values were obtained:
Assay in all cases: growth of human tumour cells (NCI), 48 h
[1] = system: SK-OV-3 ovarian
[2] = system: EKVX NSCLC
[3] = system: SF-268 CNS
[4] = system: SF-539 CNS
[5] = system: A498 renal
[6] = system: SK-MEL-5 melanoma
[7] = system: MDA-MB-435
[8] = system: MOLT-4 leukemia
[9] = system: MDA-N
[10] = system: HL-60(TB) leukemia
[11] = system: CAKI-1 renal
[12] = system: LOX IMVI melanoma
[13] = system: A549 NSCLC
[14] = system: KM12 colon
[15] = system: SNB-75 CNS
[16] = system: RPMI-8226 leukemia
[17] = system: HOP-92 NSCLC
[18] = system: HOP-62 NSCLC
[19] = system: HCT-15 colon
[20] = system: MALME-3M melanoma
[21] = system: OVCAR-5 ovarian
[22] = system: SK-MEL-2 melanoma
[23] = system: UACC-257 melanoma
[24] = system: OVCAR-3 ovarian
[25] = system: RXF 393 renal
[26] = system: COLO 205 colon
[27] = system: NCI-H226 lung
[28] = system: SNB-19 CNS
[29] = system: PC-3 prostate
[30] = system: UO-31 renal
[31] = system: NCI-H460 lung
[32] = system: HCC-2998 colon
[33] = system: HS 578T breast
[34] = system: U251 CNS
[35] = system: HT29 colon
[36] = system: SN12C renal
[37] = system: DU-145 prostate
[38] = system: K-562 leukemia
[39] = system: NCI/ADR-RES ovarian
[40] = system: HCT-116 colon
[41] = system: UACC-62 melanoma
[42] = system: MCF7 breast
[43] = system: TK-10 renal
[44] = system: ACHN renal
[45] = system: OVCAR-8 ovarian
[46] = system: OVCAR-4 ovarian
[47] = system: CCRF-CEM leukemia
[48] = system: BT-549 breast
[49] = system: SF-295 CNS
[50] = system: M14 melanoma
[51] = system: MDA-MB-231 breast
[52] = system: 786-0 renal
[53] = system: SW-620 colon
[54] = system: SK-MEL-28 melanoma
[55] = system: NCI-H23 lung

Measured: TGI

CCc1nc2ccc(C(F)(F)F)cc2[nH]c1=O
> 100 µM: all assays above
